Patent EP1043020A1, “MEDICINAL COMPOSITION FOR PERCUTANEOUS ADMINISTRATION” (priority 1997, dated 1999)
Like-named read-outs stand apart in the source and are kept apart here.

What was measured:
[1] = in vitro skin permeability test in pig; type: in vitro ADME, Yucatan miniature pig
[2] = not given; remark: listed apart in the source

With `CC(=N)N1CC[C@H](Oc2ccc([C@H](Cc3ccc4ccc(C(=N)N)cc4c3)C(=O)O)cc2)C1.Cl.O.O.O.O.O` [compound A, (2S)-2-[4-[((3S)-1-acetimidoyl-3-pyrrolidinyl)oxy]phenyl]-3-(7-amidino-2-naphthyl)propionic acid hydrochloride pentahydrate] the “Percutaneous absorption enhancing effect” value was 1.0, the “Q24 (cumulative skin permeation amount of compound A per unit area for 24 hours)” value was 709.05 ± 76.18 µg/cm^2 and the “Percutaneous absorption enhancing effect” value [1] was 1.0. For the same compound, the “Q48 (cumulative skin permeation amount of compound A per unit area for 48 hours)” value ([2]; human skin (2): horny, epidermal, dermal and some fat layers, approximately 1 mm, freeze-stored, thawed, fat removed, donor: compound A 50 mg/mL with enhancer, mean ± S.E., n=2 or 3) was “(2) 3 ± 1 µg/cm^2” and the “Percutaneous absorption enhancing effect” value ([2]; human skin (2), ratio of Q48 of compound A with enhancer to that without enhancer (3 ± 1)) was 1.0.
